System: LpxC enzyme
Experiment: LpxC enzyme assay (RapidFire high-throughput mass spectrometry)
Type: biochemical
Description: The standard LpxC assay consists of 0.2 nM LpxC enzyme, 1.0 μM UDP-3-O—(R-3-hydroxymyristoyl)-N-acetylglucosamine, and test compound, in assay buffer and 2% DMSO. Assay buffer is comprised of 25 mM HEPES, pH 7.3, 150 mM NaCl, 2.0 mM DTT, and 0.01% BSA. The enzyme reaction is carried out in a 96-well assay plate, in a final volume of 102 μL. Solutions of test compounds are prepared in 100% DMSO. Reaction additions, in order, are (1) 2.0 μL compound solution, (2) 80 μL of assay buffer, (3) 10 μL of 10 μM UDP-3-O—(R-3-hydroxymyristoyl)-N-acetylglucosamine (in assay buffer) and, (4) 10 μL of LpxC enzyme (20 nM in assay buffer) to initiate the reaction. In positive control reactions, addition (1) has 2.0 μL of 100% DMSO (without compound); these reactions are used as the total signal (TSB) value. Reactions are incubated at room temperature for 60 minutes when 10 μL of 1 N HCl is added to stop the reaction. The plate is shaken by hand for 10 seconds to ensure complete quenching. Assay plates are sealed with foil tape, and stored at −80° C. for 24-48 hr prior to analysis.
The concentrations of substrate and product in the reaction mixtures are determined with BioTrove's proprietary RapidFire™ high-throughput mass spectrometry (HTMS). Assay mixtures are partially purified with reverse phase chromatography, where they are washed with water containing 5 mM ammonium formate and eluted onto the mass spectrometer in 80% acetonitrile, 20% water, and 5 mM ammonium formate. The mass spectrometry peak areas of the substrate and product are measured to determine the concentration of these analytes. The assay signal is the percentage of substrate that is converted to product. Percent inhibition, % I, in test samples is determined from the following equation: […]

[1] = concentration 0.10 (unit not given)
[2] = concentration 0.20 (unit not given)
[3] = concentration 0.39 (unit not given)
[4] = concentration 0.78 (unit not given)
[5] = concentration 1.56 (unit not given)
[6] = concentration 3.13 (unit not given)
[7] = concentration 6.25 (unit not given)
[8] = concentration 12.50 (unit not given)
[9] = concentration 25 (unit not given)
[10] = concentration 50 (unit not given)

Row | Structure (SMILES) | LpxC enzyme assay rating (% inhibition at indicated concentrations) [1] | LpxC enzyme assay rating (% inhibition at indicated concentrations) [2] | LpxC enzyme assay rating (% inhibition at indicated concentrations) [3] | LpxC enzyme assay rating (% inhibition at indicated concentrations) [4] | LpxC enzyme assay rating (% inhibition at indicated concentrations) [5] | LpxC enzyme assay rating (% inhibition at indicated concentrations) [6] | LpxC enzyme assay rating (% inhibition at indicated concentrations) [7] | LpxC enzyme assay rating (% inhibition at indicated concentrations) [8] | LpxC enzyme assay rating (% inhibition at indicated concentrations) [9] | LpxC enzyme assay rating (% inhibition at indicated concentrations) [10]
1 | CNC(=O)[C@H](O)[C@@H](O)C(=O)N1CCN(c2ccc(-c3ccccc3)cc2)CC1 [Compound 30] | C (less than 10% inhibition) | B (10-30% inhibition) | B (10-30% inhibition) | C (less than 10% inhibition) | C (less than 10% inhibition) | B (10-30% inhibition) | B (10-30% inhibition) | B (10-30% inhibition) | B (10-30% inhibition) | A (greater than 30% inhibition)
2 | CNC(=O)[C@H](O)[C@@H](O)C(=O)N1CCN(c2cccc(-c3ccccc3)c2)CC1 [Compound 31] | C (less than 10% inhibition) | B (10-30% inhibition) | C (less than 10% inhibition) | B (10-30% inhibition) | B (10-30% inhibition) | B (10-30% inhibition) | C (less than 10% inhibition) | B (10-30% inhibition) | B (10-30% inhibition) | B (10-30% inhibition)
3 | CCCCc1ccc(NC(=O)[C@H](O)[C@@H](O)C(=O)NC)cc1 [Compound 32] | B (10-30% inhibition) | B (10-30% inhibition) | B (10-30% inhibition) | B (10-30% inhibition) | C (less than 10% inhibition) | B (10-30% inhibition) | C (less than 10% inhibition) | B (10-30% inhibition) | B (10-30% inhibition) | B (10-30% inhibition)
4 | CCCc1ccc(NC(=O)[C@H](O)[C@@H](O)C(=O)NC)cc1 [Compound 33] | C (less than 10% inhibition) | C (less than 10% inhibition) | C (less than 10% inhibition) | C (less than 10% inhibition) | B (10-30% inhibition) | B (10-30% inhibition) | B (10-30% inhibition) | C (less than 10% inhibition) | C (less than 10% inhibition) | C (less than 10% inhibition)
5 | CCC(C)c1ccc(NC(=O)[C@H](O)[C@@H](O)C(=O)NC)cc1 (stereo partly shown) [Compound 34] | C (less than 10% inhibition) | B (10-30% inhibition) | C (less than 10% inhibition) | B (10-30% inhibition) | B (10-30% inhibition) | C (less than 10% inhibition) | B (10-30% inhibition) | C (less than 10% inhibition) | B (10-30% inhibition) | B (10-30% inhibition)
6 | CNC(=O)[C@H](O)[C@@H](O)C(=O)N1CCC(c2ccc(C(F)(F)F)cc2)CC1 [Compound 35] | C (less than 10% inhibition) | C (less than 10% inhibition) | C (less than 10% inhibition) | C (less than 10% inhibition) | B (10-30% inhibition) | C (less than 10% inhibition) | C (less than 10% inhibition) | C (less than 10% inhibition) | C (less than 10% inhibition) | B (10-30% inhibition)
7 | CNC(=O)[C@H](O)[C@@H](O)C(=O)N1CCC(c2ccc3ccccc3c2)CC1 [Compound 36] | C (less than 10% inhibition) | C (less than 10% inhibition) | C (less than 10% inhibition) | C (less than 10% inhibition) | C (less than 10% inhibition) | C (less than 10% inhibition) | C (less than 10% inhibition) | C (less than 10% inhibition) | C (less than 10% inhibition) | C (less than 10% inhibition)
8 | CNC(=O)[C@H](O)[C@@H](O)C(=O)N1CCN(c2ccc(-c3ncccn3)cc2)CC1 [Compound 37] | C (less than 10% inhibition) | C (less than 10% inhibition) | C (less than 10% inhibition) | C (less than 10% inhibition) | C (less than 10% inhibition) | C (less than 10% inhibition) | B (10-30% inhibition) | C (less than 10% inhibition) | B (10-30% inhibition) | C (less than 10% inhibition)
9 | CNC(=O)[C@H](O)[C@@H](O)C(=O)Nc1ccc(N2CCN(C)CC2)cc1 [Compound 38] | C (less than 10% inhibition) | C (less than 10% inhibition) | C (less than 10% inhibition) | C (less than 10% inhibition) | C (less than 10% inhibition) | C (less than 10% inhibition) | C (less than 10% inhibition) | C (less than 10% inhibition) | C (less than 10% inhibition) | B (10-30% inhibition)
10 | CNC(=O)[C@H](O)[C@@H](O)C(=O)Nc1ccc(OCCN(C)C)cc1 [Compound 39] | C (less than 10% inhibition) | C (less than 10% inhibition) | C (less than 10% inhibition) | B (10-30% inhibition) | C (less than 10% inhibition) | B (10-30% inhibition) | B (10-30% inhibition) | C (less than 10% inhibition) | C (less than 10% inhibition) | B (10-30% inhibition)
